Non-standard residues stand in square brackets, D forms with d. Residues, ends and D or L forms follow the SMILES beside them. *: point of attachment. Palmitoyl = CCCCCCCCCCCCCCCC(=O)*; Myristoyl = CCCCCCCCCCCCCC(=O)*
Key:
P. cepacia = assay: Minimum inhibitory concentration, P. cepacia; format: cell-based, Pseudomonas cepacia
Description: By “antimicrobial” activity is meant the ability to inhibit the growth of at least one microbial organism selected from the group consisting E. coli, P. aeruginosa, S. aureus and C. albicans, as confirmed by optical density measurement (“OD”). By “inhibition of growth” is meant reduction or absence of an increase greater than 5% in OD, a dimensionless measure of turbidity that is proportional to the amount of microbial cells present in a sample. For illustrative purposes, a OAB according to the present invention is added to a culture plate on which E. coli is present at a final concentration of about 5×10^3 cfu/ml. The plate is then incubated at about 37° C. for about 24 hours at which time the E. coli is resuspended by shaking, and OD is measured at about 600 nm. Thus, a reduction or absence of an increase greater than 5% in OD confirms the antimicrobial nature of the OAB with respect to E. coli. Minimum inhibitory concentration (“MIC”) is a method well-known to those of skill in the art for expressing antimicrobial activity. A compound to be tested is serially diluted into growth medium, inoculated with culture and then incubated. The MIC is the lowest dilution of compound that inhibits or prevents growth of the target microorganism.

fibroblast proliferation = assay: Cyquant Cell Proliferation Assay; format: cell-based
Experimental: For purposes of the present invention, proliferation is assessed using the Cyquant® Cell Proliferation Assay from Molecular Probes. This assay measures increased production of cellular nucleic acids that, in turn, results in increased binding of fluorescent dye.

Row | Molecule | MIC(P. cepacia) (P. cepacia) [ppm] | increase fibroblast proliferation (qualitative) (fibroblast proliferation)
1 | CCCCCCCCCCCCCC(=O)N[C@@H](CCCCN)C(=O)N[C@@H](CC(C)C)C(=O)N[C@@H](C)C(=O)N[C@@H](CCCCN)C(=O)N[C@@H](CCCCN)C(=O)O [P351, Myr-KLAKK-acid] (Myristoyl-KLAKK-OH) | ≤ 100 | increase fibroblast proliferation
2 | CCCCCCCCCCCCCC(=O)N[C@@H](CC(C)C)C(=O)N[C@@H](C)C(=O)N[C@@H](CCCCN)C(=O)N[C@@H](CCCCN)C(=O)O [P363, Myr-LAKK-acid] (Myristoyl-LAKK-OH) | ≤ 100 | increase fibroblast proliferation
3 | CCCCCCCCCCCCCC(=O)N[C@@H](CCCCN)C(=O)N[C@@H](CC(C)C)C(=O)N[C@@H](C)C(=O)N[C@@H](CCCCN)C(=O)N[C@@H](CCCCN)C(=O)N[C@H](CC(C)C)C(N)=O [P396, Myr-KLAKK-[L]^D-amide] (Myristoyl-KLAKK[dL]-NH2) | ≤ 100 | increase fibroblast proliferation
4 | CCCCCCCCCCCCCC(=O)N[C@@H](CC(C)C)C(=O)N[C@@H](CCCCN)C(=O)N[C@@H](CCCCN)C(=O)N[C@@H](C)C(=O)N[C@@H](CC(C)C)C(=O)N[C@@H](CCCCN)C(N)=O [P296, Myr-LKKALK-amide] (Myristoyl-LKKALK-NH2) | ≤ 100 | increase fibroblast proliferation
5 | CCCCCCCCCCCCCC(=O)N[C@@H](CCCCN)C(=O)N[C@@H](CCCCN)C(=O)N[C@@H](C)C(=O)N[C@@H](CC(C)C)C(N)=O [P291, Myr-KKAL-amide] (Myristoyl-KKAL-NH2) | ≤ 100 | increase fibroblast proliferation
6 | CCCCCCCCCCCCCC(=O)N[C@@H](CCCCN)C(=O)N[C@@H](CCCCN)C(=O)N[C@@H](CO)C(=O)N[C@@H](CC(C)C)C(=O)N[C@H](CCCCN)C(N)=O [P395, Myr-KKSL-[K]^D-amide] (Myristoyl-KKSL[dK]-NH2) | ≤ 100 | increase fibroblast proliferation
7 | CCCCCCCCCCCCCC(=O)N[C@@H](CC(C)C)C(=O)N[C@@H](CO)C(=O)N[C@@H](CCCCN)C(=O)N[C@@H](CCCCN)C(N)=O [P372, Myr-LSKK-amide] (Myristoyl-LSKK-NH2) | ≤ 100 | increase fibroblast proliferation
8 | CCCCCCCCCCCCCC(=O)N[C@@H](C)C(=O)N[C@@H](C)C(=O)N[C@@H](CCCCN)C(=O)N[C@@H](CCCNC(=N)N)C(N)=O [P400, Myr-AAKR-amide] (Myristoyl-AAKR-NH2) | ≤ 100 | increase fibroblast proliferation
9 | CCCCCCCCCCCCCC(=O)N[C@@H](C)C(=O)N[C@@H](Cc1c[nH]cn1)C(=O)N[C@@H](CCCNC(=N)N)C(N)=O [P322, Myr-AHR-amide] (Myristoyl-Ala-His-Arg-NH2) | ≤ 100 | increase fibroblast proliferation
10 | CCCCCCCCCCCCCC(=O)N[C@@H](CCCCN)C(=O)N[C@@H](CCCCN)C(=O)NCC(=O)N[C@H](C(=O)N[C@H](CCCCN)C(N)=O)[C@@H](C)CC [P390, Myr-KKG1-[K]^D-amide] (Myristoyl-KKGI[dK]-NH2) | ≤ 100 | increase fibroblast proliferation
11 | CCCCCCCCCCCCCC(=O)NCC(=O)N[C@@H](CCCCN)C(=O)N[C@@H](CCCCN)C(=O)N[C@@H](C)C(=O)N[C@@H](CC(C)C)C(=O)N[C@H](CCCCN)C(N)=O [P404, Myr-GKKAL-[K]^D-amide] (Myristoyl-GKKAL[dK]-NH2) | ≤ 100 | increase fibroblast proliferation
12 | CCCCCCCCCCCCCC(=O)N[C@@H](CCCCN)C(=O)N[C@@H](CCCCN)C(=O)N[C@@H](CCCCN)C(=O)O [P348, Myr-KKK-acid] | ≤ 100 | increase fibroblast proliferation
13 | CCCCCCCCCCCCCC(=O)NCC(=O)NCC(=O)N[C@@H](CCCCN)C(=O)N[C@@H](CCCNC(=N)N)C(N)=O [P399, Myr-GGKR-amide] (Myristoyl-GGKR-NH2) | ≤ 100 | increase fibroblast proliferation
14 | CCCCCCCCCCCCCC(=O)N[C@@H](CCCCN)C(=O)N[C@@H](CCCCN)C(=O)NCC(=O)N[C@@H](CC(C)C)C(=O)N[C@@H](CCCCN)C(N)=O [P374, Myr-KKGLK-amide] (Myristoyl-KKGLK-NH2) | ≤ 100 | increase fibroblast proliferation
15 | CCCCCCCCCCCCCC(=O)N[C@@H](CCCCN)C(=O)N[C@@H](CCCCN)C(=O)N[C@@H](C)C(=O)N[C@@H](CC(C)C)C(=O)O [P362, Myr-KKAL-acid] (Myristoyl-KKAL-OH) | ≤ 100 | increase fibroblast proliferation
16 | CCCCCCCCCCCCCCCC(=O)N[C@@H](C)C(=O)N[C@@H](C)C(=O)N[C@@H](CCCCN)C(=O)N[C@@H](CCCNC(=N)N)C(N)=O [P398, Pal-AAKR-amide] (Palmitoyl-AAKR-NH2) | ≤ 100 | –
17 | CCCCCCCCCCCCCC(=O)N[C@@H](CC(=O)O)C(=O)N[C@@H](CC(=O)O)C(=O)N[C@@H](CC(C)C)C(=O)N[C@@H](C)C(=O)N[C@@H](CCCCN)C(=O)N[C@@H](CCCCN)C(N)=O [P412, Myr-DDLAKK-amide] (Myristoyl-DDLAKK-NH2) | – | increase fibroblast proliferation
18 | CCCCCCCCCCCCCC(=O)N[C@H](C(=O)N[C@H](C(=O)N[C@H](C(=O)N[C@@H](CCCCN)C(=O)N[C@@H](CCCCN)C(N)=O)[C@@H](C)CC)[C@@H](C)CC)[C@@H](C)CC [P418, Myr-IIIKK-amide] (Myristoyl-IIIKK-NH2) | – | increase fibroblast proliferation
19 | Pal-KKLAK-amide (Palmitoyl-KKLAK-NH2; SMILES CCCCCCCCCCCCCCCC(=O)N[C@@H](CCCCN)C(=O)N[C@@H](CCCCN)C(=O)N[C@@H](CC(C)C)C(=O)N[C@@H](C)C(=O)N[C@@H](CCCCN)C(N)=O) [P333] | – | increase fibroblast proliferation
20 | CCCCCCCCCCCCCC(=O)N[C@@H](CC(=O)O)C(=O)N[C@@H](CC(=O)O)C(=O)N[C@@H](CO)C(=O)N[C@@H](CO)C(=O)N[C@@H](CCCCN)C(=O)N[C@@H](CCCCN)C(N)=O [P411, Myr-DDSSKK-amide] (Myristoyl-DDSSKK-NH2) | – | increase fibroblast proliferation
21 | Pal-AARK-amide (Palmitoyl-AARK-NH2; SMILES CCCCCCCCCCCCCCCC(=O)N[C@@H](C)C(=O)N[C@@H](C)C(=O)N[C@@H](CCCNC(=N)N)C(=O)N[C@@H](CCCCN)C(N)=O) [P397] | – | increase fibroblast proliferation
22 | CCCCCCCCCCCCCC(=O)N[C@@H](C)C(=O)N[C@@H](CCCCN)C(=O)N[C@@H](CCCCN)C(=O)N[C@@H](CC(C)C)C(=O)N[C@@H](C)C(=O)N[C@@H](CCCCN)C(=O)O [P256, Myr-AKKLAK-acid] (Myristoyl-AKKLAK-OH) | – | increase fibroblast proliferation
23 | CCCCCCCC(=O)NCC(=O)N[C@@H](CCCNC(=N)N)C(=O)NCC(=O)N[C@@H](CC(=O)O)C(=O)N[C@@H](CO)C(N)=O [P387, Oct-GRGDS-amide] | – | increase fibroblast proliferation
24 | CCCCCCCCCCCCCC(=O)N1CCC[C@H]1C(=O)N[C@@H](CCCCN)C(=O)N[C@@H](CCCCN)C(=O)N[C@@H](C)C(=O)N[C@@H](CC(C)C)C(=O)N[C@@H](CCCCN)C(N)=O [P364, Myr-PKKALK-amide] (Myristoyl-PKKALK-NH2) | ≤ 100 | –
25 | CCCCCCCCCCCCCC(=O)NCC(=O)N[C@@H](C)C(=O)N[C@@H](CCCNC(=N)N)C(=O)O [P257, Myr-GAR-acid] (Myristoyl-Gly-Ala-Arg-OH) | – | increase fibroblast proliferation
26 | CCCCCCCCCCCCCC(=O)N[C@H](CC(C)C)C(=O)N[C@H](CCCCN)C(=O)N[C@H](CCCCN)C(=O)N[C@H](C)C(=O)N[C@H](CC(C)C)C(=O)N[C@H](CCCCN)C(=O)O [P286, Myr-d-[LKKALK]-acid] (Myristoyl-[dL][dK][dK][dA][dL][dK]-OH) | ≤ 100 | –
27 | CCCCCCCCCCCCCC(=O)N[C@@H](CCCCN)C(=O)N[C@H](C(=O)N[C@@H](C)C(=O)N[C@@H](CCCCN)C(=O)N[C@H](CCCCN)C(N)=O)[C@@H](C)CC [P401, Myr-KIAK-[K]^D-amide] (Myristoyl-KIAK[dK]-NH2) | – | increase fibroblast proliferation
28 | CCCCCCCCCCCCCC(=O)N[C@@H](CCCCN)C(=O)N[C@@H](CCCCN)C(=O)N[C@@H](CC(C)C)C(=O)N[C@@H](C)C(=O)N[C@H](CCCCN)C(N)=O [P365, Myr-KKLA-[K]^D-amide] (Myristoyl-KKLA[dK]-NH2) | ≤ 100 | –
29 | Myr-KKALKL-amide (Myristoyl-KKALKL-NH2; SMILES CCCCCCCCCCCCCC(=O)N[C@@H](CCCCN)C(=O)N[C@@H](CCCCN)C(=O)N[C@@H](C)C(=O)N[C@@H](CC(C)C)C(=O)N[C@@H](CCCCN)C(=O)N[C@@H](CC(C)C)C(N)=O) [P380] | – | increase fibroblast proliferation
